Results published in patent US20250367323A1, “PLATFORM FOR RADIOLYTIC NEUROMODULATION” (THE UAB RESEARCH FOUNDATION, priority 2024, published 2025).
Read-outs that look alike come from different tables or passages of the source.

Assays:
[1] = test system: isolated Drosophila brains
mouse TRPA1 (mTRPA1) = biological target: T1, mouse TRPA1 (mTRPA1) (Mus musculus, UniProt Q8BLA8); assay: Intracellular Ca2+ imaging (Fluo-4) in HEK293 cells expressing mTRPA1; type: cell-based; details: H2O2 10 μM, BITC 100 μM added at end of experiment
T1 construct: expressed in transfected cells; host or cells: HEK293
Experimental: (§1) (FIG. 1A) Cells expressing either dTRPA1, mTRPA1, or mCherry were Xray irradiated (0.5 nGy/cm^2/sec) for 60 sec while monitoring changes in intracellular Ca^2+. BITC (100 μM) was added at the end of the experiments to confirm TRPA1 expression. […] (FIG. 1B) As in (FIG. 1A), except cells were stimulated with H2O2 (10 μM) administration. […] One-way ANOVA with Tukey's multiple comparisons test.
(§2) The Xrs source (FIG. 3A) was mounted to a Zeiss 710 LSM confocal imaging system. Changes in intracellular Ca^2+ were detected using a Fluo-4 Direct™ calcium assay kit. Fluo-4 epifluorescence changes were computed as (Fi-Fo; ΔF)/Fo, where Fi, is the fluorescence intensity at any frame and F0, is the resting fluorescence. F0 was calculated as the averaged fluorescence of the first 3 frames before stimulation.

dTRPA1(A)10b = biological target: T2, dTRPA1(A)10b (Drosophila melanogaster, UniProt Q7Z020); type: cell-based; details: for change in intracellular Ca2+ on agonist administration: HEK293 cells expressing dTRPA1(A)10b, H2O2 10 μM, BITC 100 μM added at end of experiment
T2 construct: expressed in transfected cells; host or cells: HEK293
T2 sequence (Q7Z020 with tags, fused parts or gaps isoform Q7Z020-5): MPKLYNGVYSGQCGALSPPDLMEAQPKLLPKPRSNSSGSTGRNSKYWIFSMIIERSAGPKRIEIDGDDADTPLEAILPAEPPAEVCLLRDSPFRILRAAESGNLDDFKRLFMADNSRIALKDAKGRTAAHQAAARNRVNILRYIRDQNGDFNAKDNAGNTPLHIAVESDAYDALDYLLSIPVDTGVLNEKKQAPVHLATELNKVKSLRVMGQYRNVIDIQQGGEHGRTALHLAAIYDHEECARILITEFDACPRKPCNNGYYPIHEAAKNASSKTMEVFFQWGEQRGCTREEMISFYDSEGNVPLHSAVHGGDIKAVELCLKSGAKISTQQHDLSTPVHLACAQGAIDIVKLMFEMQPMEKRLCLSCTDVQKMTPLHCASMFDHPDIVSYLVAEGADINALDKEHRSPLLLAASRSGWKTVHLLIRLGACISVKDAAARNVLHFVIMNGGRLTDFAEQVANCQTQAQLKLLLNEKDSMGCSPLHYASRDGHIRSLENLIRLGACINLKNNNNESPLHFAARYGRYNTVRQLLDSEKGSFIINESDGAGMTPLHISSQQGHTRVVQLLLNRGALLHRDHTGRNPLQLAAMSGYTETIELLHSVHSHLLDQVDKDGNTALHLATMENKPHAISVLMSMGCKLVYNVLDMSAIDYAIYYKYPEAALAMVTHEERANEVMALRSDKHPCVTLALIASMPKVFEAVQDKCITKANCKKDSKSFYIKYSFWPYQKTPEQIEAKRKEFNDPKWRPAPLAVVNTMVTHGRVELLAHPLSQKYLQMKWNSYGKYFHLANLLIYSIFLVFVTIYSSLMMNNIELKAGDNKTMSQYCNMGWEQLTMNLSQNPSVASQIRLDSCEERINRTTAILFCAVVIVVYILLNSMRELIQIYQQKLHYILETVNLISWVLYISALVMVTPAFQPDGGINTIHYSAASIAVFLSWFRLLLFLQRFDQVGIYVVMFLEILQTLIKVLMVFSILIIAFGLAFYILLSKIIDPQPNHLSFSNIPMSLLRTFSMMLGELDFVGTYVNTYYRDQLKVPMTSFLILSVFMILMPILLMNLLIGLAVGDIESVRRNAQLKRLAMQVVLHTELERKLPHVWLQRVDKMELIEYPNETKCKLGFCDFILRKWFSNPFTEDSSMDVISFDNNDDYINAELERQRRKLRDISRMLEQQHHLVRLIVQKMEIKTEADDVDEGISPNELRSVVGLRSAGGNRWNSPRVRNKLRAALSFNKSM
Experimental: as §1, §2

[2] = test system: HEK293 cells expressing mCherry; assay: Intracellular Ca2+ imaging (Fluo-4) in HEK293 cells expressing mCherry control; type: cell-based, human; details: HEK293 cells expressing mCherry only; H2O2 10 μM; BITC 100 μM added at end of experiment
Experimental: as §1, §2

Drosophila = details: flies fed food containing H2O2 (1%) for 5 hours vs vehicle; 1 hour acclimation; p<0.03; n=29-30
[3] = test system: isolated Drosophila brains; details: brains perfused with 200 μM H2O2; electrode in vs out of brain p<0.0042; n=3

T1 sequence (Q8BLA8 whole entry): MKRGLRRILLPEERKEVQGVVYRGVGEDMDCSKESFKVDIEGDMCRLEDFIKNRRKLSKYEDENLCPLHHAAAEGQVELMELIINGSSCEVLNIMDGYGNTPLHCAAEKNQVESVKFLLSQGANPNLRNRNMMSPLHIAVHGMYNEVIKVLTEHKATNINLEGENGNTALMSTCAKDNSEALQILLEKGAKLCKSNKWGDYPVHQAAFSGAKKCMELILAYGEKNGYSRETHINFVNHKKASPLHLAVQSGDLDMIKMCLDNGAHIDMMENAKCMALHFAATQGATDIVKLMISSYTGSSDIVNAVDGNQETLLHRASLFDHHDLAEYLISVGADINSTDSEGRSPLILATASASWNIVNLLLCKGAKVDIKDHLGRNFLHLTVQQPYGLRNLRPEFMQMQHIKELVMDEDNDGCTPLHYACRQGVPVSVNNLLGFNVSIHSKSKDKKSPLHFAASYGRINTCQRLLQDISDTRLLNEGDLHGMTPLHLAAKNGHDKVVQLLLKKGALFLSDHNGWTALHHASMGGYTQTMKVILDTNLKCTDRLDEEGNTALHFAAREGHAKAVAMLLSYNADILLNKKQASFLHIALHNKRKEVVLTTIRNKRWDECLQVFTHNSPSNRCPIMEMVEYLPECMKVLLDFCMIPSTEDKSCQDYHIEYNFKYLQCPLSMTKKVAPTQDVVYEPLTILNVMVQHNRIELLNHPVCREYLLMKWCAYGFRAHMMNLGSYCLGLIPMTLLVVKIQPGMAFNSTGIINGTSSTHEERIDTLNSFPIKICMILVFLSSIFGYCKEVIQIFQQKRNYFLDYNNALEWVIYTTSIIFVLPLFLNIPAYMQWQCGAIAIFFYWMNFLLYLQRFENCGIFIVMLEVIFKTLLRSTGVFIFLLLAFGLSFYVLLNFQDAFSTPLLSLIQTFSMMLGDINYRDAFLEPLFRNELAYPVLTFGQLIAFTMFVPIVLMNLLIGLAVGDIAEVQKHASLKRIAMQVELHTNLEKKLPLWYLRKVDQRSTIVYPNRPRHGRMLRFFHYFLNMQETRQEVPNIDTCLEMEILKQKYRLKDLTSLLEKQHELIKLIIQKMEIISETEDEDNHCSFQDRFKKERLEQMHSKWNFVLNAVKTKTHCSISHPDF

Compound | change in intracellular Ca2+ on agonist administration (mouse TRPA1 (mTRPA1)) | change in intracellular Ca2+ on agonist administration (dTRPA1(A)10b) | change in intracellular Ca2+ on agonist administration [2] | further results
N[C@@H](Cc1ccc(O)c(I)c1)C(=O)O [3IY, 3-iodotyrosine] |  |  |  | effect on Xrs-stimulated DA release (AUC of amperometric signals) after DA depletion ([1]; 10 mg/mL orally administered to flies for 24 hr vs vehicle, p<0.013, n=13-15): significantly reduces the ability of Xrs to stimulate DA release
S=C=NCc1ccccc1 [BITC, benzyl isothiocyanate] | increases intracellular Ca^2+ | increases intracellular Ca^2+ | modest increase in Ca^2+ | 
OO [H2O2, hydrogen peroxide] | not observed | promotes an acute increase in intracellular Ca^2+ | not observed | locomotion (total beam crossings over a 4 hr period) (Drosophila): significantly stimulates locomotion; DA release (peak amperometric current) [3]: stimulates DA release
CC(C)c1ccc(NC(=O)Cn2cnc3c2c(=O)n(C)c(=O)n3C)cc1 [HC-030031] |  |  |  | effect on Xrs-stimulated DA release (AUC of amperometric current) ([1]; Xrs 0.1 Gy/sec for 250 msec, brains incubated 5 min with 1 μM TTX or 100 μM HC-030031 vs control/vehicle): inhibits Xrs-stimulated DA release
NC1=N[C@H](O)[C@H]2[C@H]3O[C@]4(O)O[C@@H]([C@@H](O)[C@@]2(N1)[C@@H]4O)[C@]3(O)CO [TTX, tetrodotoxin] |  |  |  | effect on Xrs-stimulated DA release (AUC of amperometric current) [1]: robustly inhibits this release
CC1(C)CC(O)CC(C)(C)N1[O] [Tempol] |  |  |  | effect on Xray-induced Ca2+ increases (dTRPA1(A)10b; Xray irradiation, ROS scavenger present): blocked
